Results on twelve molecules are retold here after US7105527B2, “N4-acylcytosine nucleosides for treatment of viral infections” (priority 2001, dated 2006).

The structures appear in SMILES notation. Read-outs that look alike come from different tables or passages of the source. A value given as a limit tells only on which side of the number the result lay.

The test system of data set [1] is HIV-1RF. In words: Anti-HIV (in MT-2 cells) assay, viral RNA accumulation. As to conditions: EC90, MT-2 cells, read-out: Anti-HIV-1 activity in different cells (EC90, μM) MT-2. The class given is cell-based. Summed up:
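HIV-1RF in MT-2 cells: viral RNA quantified after 3 days of infection by biotinylated capture/alkaline phosphatase reporter oligonucleotides. HIV-1NL4-3 recombinant virus in MT-4 cells: drug added 24 h post-infection, p24 measured by ELISA 3 days later.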

Data set [2] deals with HIV-1NL4-3. The data set can be described thus: Anti-HIV assay in MT-4 cells, consensus p24 assay. The class given is cell-based. The protocol:
In a second antiviral testing system, the potency of the compounds was determined by measurement of viral RNA accumulation in HIV-1RF infected MT-2 cells (Bacheler L T, Paul M, Otto M J, Jadhav P K, Stone B A & Miller J A (1994) An assay for HIV RNIn infected cell lysates, and its use for rapid evaluation of antiviral efficacy. Antivir. Chem. Chemother. 5:111–121). The virus titer was established to determine the dilution producing 15 to 30 ng/RNA per well of HIV RNIn 3 days of infection. HIV-1 RNA was quantified using biotinylated capture and alkaline phosphatase-derivatized reporter oligonucleotides as described previously (Charvet A-S, Camplo M, Faury P, Graciet J C, Mourier N, Chermann J C & Kraus J L (1994) Inhibition of human immunodeficiency virus type 1 replication by phosphonoformate- and phosphonoacetate-2′,3′-dideoxy-3′-thiacytidine conjugates. J. Med. Chem. 37:2216–2223). In a third system, the effect of analogs on the replication of HIV-1NL4-3 was determined via the InterCompany Consortium consensus p24 assay as previously described (Jadhav P K & MacKay M F (1997) Cyclic urea amide: HIV-1 protease inhibitors with low nanomolar potency against both wild types and protease inhibitor resistant mutants of HIV. J. Med. Chem. 40:181–190). Recombinant viruses were recovered by transfecting the appropriate NL4-3 plasmid by lipofection. Virus stocks recovered 7 to 10 days post-transfection were titered on MT-4 cells to determine if the dilution produced 1,000 to 3,000 ng p24 in 4 days. This dilution was then used in drug susceptibility assays, where drug was added 24 h post infection of cells, and p24 quantified by ELISA 3 days later.

Data set [3] concerns Vero cells. In words: Cytotoxicity assay in Vero cells. The data set is classed as cell-based. Summed up: (§1)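 Compound toxicity measured in each cell type, with cycloheximide as positive cytotoxic control and solvent-exposed untreated cells as negative control. Cytotoxicity IC50 derived from concentration-response curves by the median effective method.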
Data set [4] relates to CEM (human lymphoblastoid) cells. The data set can be described thus: Cytotoxicity assay in CEM cells. The data set is classed as cell-based. Summed up: as §1
Data set [5] relates to HIV-1LAl. In words: Anti-HIV (in PBM cells) assay, reverse transcriptase readout. The data set is classed as cell-based. Summed up: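 Human PBM cells infected with HIV-1; compounds diluted from DMSO stocks into growth medium, AZT as positive control. Virus in supernatant quantified day 6 post-infection by reverse transcriptase assay with (rA)n.(dT)12.18 template-primer; EC50 and EC90 from concentration-response curves by median effective method.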

Data set [6] relates to MT-2 cells. In words: Cytotoxicity assay in MT-2 cells. The class given is cell-based. Summed up:
as §1

Data set [7] relates to HepG2 cells. In words: Cytotoxicity assay in HepG2 cells. The class given is cell-based. Summed up:
as §1

Data set [8] deals with human PBM cells. The data set can be described thus: Cytotoxicity assay in PBM cells. The data set is classed as cell-based. Summed up: as §1
Data set [9] can be described thus: Cytotoxicity assay in Vero cells. The data set is classed as cell-based. As to conditions: African green monkey, Table 2, read-out: Cytotoxicity in different cells (IC50, μM) Vero. Summed up:
as §1

The nature of data set [10]: Cytotoxicity assay in CEM cells. The class given is cell-based, human. As to conditions: human, CEM lymphoblastoid cells, Table 2, read-out: Cytotoxicity in different cells (IC50, μM) CEM. Summed up:
as §1

The nature of data set [11]: Cytotoxicity assay in MT-2 cells. The data set is classed as cell-based. As to conditions: human, Table 2, read-out: Cytotoxicity in different cells (IC50, μM) MT-2. Summed up:
as §1

A short description of data set [12]: Cytotoxicity assay in HepG2 cells. The class given is cell-based. As to conditions: human, Table 2, read-out: Cytotoxicity in different cells (IC50, μM) HepG2. Summed up:
as §1

The nature of data set [13]: Cytotoxicity assay in PBM cells. The class given is cell-based, human. As to conditions: human, human PBM cells, Table 2, read-out: Cytotoxicity in different cells (IC50, μM) PBM. Summed up:
as §1

[14] abbreviates: Human immunodeficiency virus 1, MT2, Table 2.
Where [15] appears, read: Human immunodeficiency virus 1, MT4, Table 2, read-out: Anti-HIV-1 activity in different cells (EC90, μM) MT-4.
Where [16] appears, read: Human immunodeficiency virus 1, PBMC, Table 2, read-out: Anti-HIV-1 activity in different cells (EC90, μM) PBM.
The mark [17] stands for this setting: Table 2, read-out: Anti-HIV-1 activity in different cells (EC90, μM) MT-4.
Where [18] appears, read: Table 2, read-out: Cytotoxicity in different cells (IC50, μM) Vero.
[19] abbreviates: Table 2, read-out: Cytotoxicity in different cells (IC50, μM) CEM.
[20] abbreviates: Table 2, read-out: Anti-HIV-1 activity in different cells (EC90, μM) PBM.
Setting [21] is: Table 2, read-out: Cytotoxicity in different cells (IC50, μM) MT-2.
Where [22] appears, read: Table 2, read-out: Cytotoxicity in different cells (IC50, μM) HepG2.
Setting [23] is: Table 2, read-out: Cytotoxicity in different cells (IC50, μM) PBM.

One may read the EC90 as the concentration at which the effect reaches the 90% level. A word on the IC50: it is the point on the concentration scale where inhibition reaches its midpoint. For the molecule `O=C(Nc1nc(=O)n([C@H]2CC[C@@H](CO)O2)cc1F)c1cccc([N+](=O)[O-])c1` [Compound 19, β-D-2′,3′-Dideoxy-S-fluoro-N-(3-nitrobenzoyl)cytidine], the EC90 in data set [1] (Table 1) came to 1.8 µM; in data set [2] (Table 1, read-out: Anti-HIV-1 activity in different cells (EC90, μM) MT-4) it was 1.59 µM; in data set [5] (Table 1, read-out: Anti-HIV-1 activity in different cells (EC90, μM) PBM) it was 1.6 µM. For the same molecule, the IC50 in data set [3] (Table 1, read-out: Cytotoxicity in different cells (IC50, μM) Vero) is above 100 µM; in data set [4] (Table 1, read-out: Cytotoxicity in different cells (IC50, μM) CEM), above 100 µM; in data set [6] (Table 1, read-out: Cytotoxicity in different cells (IC50, μM) MT-2) it was above 50 µM; in data set [7] (Table 1, read-out: Cytotoxicity in different cells (IC50, μM) HepG2) it was above 100 µM; in data set [8] (Table 1, read-out: Cytotoxicity in different cells (IC50, μM) PBM) it was above 100 µM.
Turning to `O=C(Nc1nc(=O)n([C@H]2C=C[C@@H](CO)O2)cc1F)c1ccc(F)cc1` [Compound 35, β-D-2′,3′-Didehydro-2′,3′-dideoxy-5-fluoro-N^4-(4-fluorobenzoyl)cytidine], the EC90 in [1] (setting [14]) was determined as 0.88 µM; in [2] (setting [15]), 7.2 µM; in data set [5] (setting [16]), 1.08 µM. Besides, the IC50 in data set [9] was 83.1 µM; in data set [10], 51.3 µM; in data set [11], above 50 µM; in data set [12] it was 93.6 µM; in [13], 53.1 µM.
Regarding `O=C(Nc1nc(=O)n([C@H]2C=C[C@@H](CO)O2)cc1F)c1ccc(Cl)cc1` [Compound 36, β-D-N^4-(4-Chlorobenzoyl)-2′,3′-didehydro-2′,3′-dideoxy-5-fluorocytidine], the EC90 in [1] (setting [14]) turned out to be 0.23 µM; in data set [2] (setting [15]), 1.9 µM; in [5] (setting [16]), 0.48 µM. Further, the IC50 in [9] was 72.2 µM; in data set [10] it was 16.8 µM; in [11], above 50 µM; in [12] it was above 100 µM; in data set [13], 11.9 µM.
`O=C(Nc1nc(=O)n([C@H]2C=C[C@@H](CO)O2)cc1F)c1ccc(Br)cc1` [Compound 37, β-D-N^4-(4-Bromobenzoyl)-2,3′-didehydro-2′,3′-dideoxy-5-fluorocytidine]: the figures for the EC90 in [1] (setting [14]), in data set [2] (setting [15]) and in data set [5] (setting [16]) were 0.14 µM, 5.2 µM and 1.4 µM, respectively. Further, the IC50 was 40.5 µM in [9]; 24 µM in data set [10]; above 50 µM in [11]; above 100 µM in data set [12]; 53 µM in data set [13].
`O=C(Nc1nc(=O)n([C@H]2C=C[C@@H](CO)O2)cc1F)c1ccc(I)cc1` [Compound 38, β-D-2′,3′-Didehydro-2′,3′-dideoxy-5-fluoro-N^4-(4-iodobenzoyl)cytidine]: the EC90 is 0.31 µM in data set [1] (setting [14]), 0.85 µM in [2] (setting [15]) and 0.76 µM in [5] (setting [16]). For the same molecule, the IC50 was 100 µM in [9]; 11.4 µM in data set [10]; above 50 µM in data set [11]; above 100 µM in data set [12]; 57 µM in data set [13].
For the molecule `O=C(Nc1nc(=O)n([C@H]2C=C[C@@H](CO)O2)cc1F)c1cccc(F)c1` [Compound 39, β-D-2′,3′-Didehydro-2′,3′-dideoxy-5-fluoro-N^4-(3-fluorobenzoyl)cytidine], the results for the EC90 in [1] (Table 2), in data set [2] (setting [17]) and in data set [5] (setting [20]) were 1 µM, 3.1 µM and 7.82 µM, respectively. For the same molecule, the IC50 in data set [3] (setting [18]) is above 100 µM; in [4] (setting [19]), 4.2 µM; in [6] (setting [21]), above 50 µM; in data set [7] (setting [22]) it was above 100 µM; in data set [8] (setting [23]), 45.3 µM.
As to `O=C(Nc1nc(=O)n([C@H]2C=C[C@@H](CO)O2)cc1F)c1cccc(Cl)c1` [Compound 40, β-D-N^4-(3-Chlorobenzoyl)-2′,3′-didehydro-2,3′-dideoxy-5-fluorocytidine], the results for the EC90 in data set [1] (Table 2), in data set [2] (setting [17]) and in [5] (setting [20]) were 2 µM, 3.4 µM and 1.71 µM, respectively. For the same molecule, the IC50 in data set [3] (setting [18]) was 100 µM; in data set [4] (setting [19]), 11.2 µM; in data set [6] (setting [21]), above 50 µM; in [7] (setting [22]), 32.4 µM; in data set [8] (setting [23]) it was 45.3 µM.
Take `O=C(Nc1nc(=O)n([C@H]2C=C[C@@H](CO)O2)cc1F)c1cccc(Br)c1` [Compound 41, β-D-N^4-(3-Bromobenzoyl)-2′,3′-didehydro-2′,3′-dideoxy-5-fluorocytidine]: the EC90 in data set [1] (Table 2) was determined as 1 µM; in data set [2] (setting [17]), 2.2 µM; in [5] (setting [20]), 1.71 µM. The IC50 in data set [3] (setting [18]) was 99.7 µM; in data set [4] (setting [19]) it was 24.9 µM; in data set [6] (setting [21]), above 50 µM; in [7] (setting [22]), above 100 µM; in data set [8] (setting [23]), 51.6 µM.
Regarding `CCc1ccc(C(=O)Nc2nc(=O)n([C@H]3C=C[C@@H](CO)O3)cc2F)cc1` [Compound 51, β-D-2′,3′-Didehydro-2′,3′-dideoxy-N^4-(4-ethyllbenzoyl)-5-fluorocytidine], the EC90 in [1] (Table 2) amounted to 0.24 µM; in data set [2] (setting [17]), 2.3 µM; in data set [5] (setting [20]), 6.2 µM. The IC50 in data set [3] (setting [18]) is 40.3 µM; in [4] (setting [19]) it was 8.1 µM; in [6] (setting [21]), above 50 µM; in [7] (setting [22]), above 100 µM; in data set [8] (setting [23]), 13 µM.
Regarding `CC(C)(C)c1ccc(C(=O)Nc2nc(=O)n([C@H]3C=C[C@@H](CO)O3)cc2F)cc1` [Compound 53, β-D-N^4-(4-tert-Butylbenzoyl)-2′,3′-didehydro-2′,3′-dideoxy-5-fluorocytidine], the figures for the EC90 in [1] (Table 2), in data set [2] (setting [17]) and in data set [5] (setting [20]) were 0.13 µM, 1.1 µM and 0.41 µM, respectively. In addition, the IC50 in data set [3] (setting [18]) is 59.2 µM; in data set [4] (setting [19]), 9.9 µM; in [6] (setting [21]), above 50 µM; in data set [7] (setting [22]) it was above 100 µM; in data set [8] (setting [23]), 5 µM.
For `CCCC(=O)Nc1nc(=O)n([C@H]2C=C[C@@H](CO)O2)cc1F` [Compound 60, β-D-N^4-Butyryl-2′,3′-didehydro-2′,3′-dideoxy-5-fluorocytidine], the EC90 in data set [1] (Table 2) came to 2.4 µM; in data set [2] (setting [17]) it was 3.1 µM; in [5] (setting [20]), 1.89 µM. For the same molecule, the IC50 is above 100 µM in data set [3] (setting [18]); 12.2 µM in [4] (setting [19]); above 50 µM in data set [6] (setting [21]); above 100 µM in data set [7] (setting [22]); 52.4 µM in [8] (setting [23]).
Regarding `Nc1nc(=O)n([C@H]2C=C[C@@H](CO)O2)cc1F` [D-D4FC, β-D-2′,3′-Dideoxy-2′,3′-didehydro-5-fluorocytidine, reference compound], the results for the EC90 in data set [1] (Table 2), in [2] (setting [17]) and in data set [5] (setting [20]) were 1.19 µM, 1.15 µM and 0.77 µM, respectively. Besides, the IC50 is above 100 µM in [3] (setting [18]); above 100 µM in data set [4] (setting [19]); above 50 µM in [6] (setting [21]); above 100 µM in [7] (setting [22]); above 100 µM in [8] (setting [23]).
